Type in all cases: biochemical
Assay [1] concerns the target T1, recombinant soluble tissue factor and recombinant human factor VIIa (TF-VIIa) (Homo sapiens, UniProt P08709).
T1 construct: conversion of coagulation factor VII to VIIa by factor Xa; purchased American Diagnostica, Greenwich CT; host or cells: soluble TF made in house in E. coli
Kind of assay: TF-VIIa assay (chromogenic substrate hydrolysis). The note with it: reported only as less than or greater than 0.1 uM. Summed up:
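100 nM soluble tissue factor and 2 nM recombinant human factor VIIa added to 0.4 mM N-methylsulfonyl-D-phe-gly-arg-p-nitroaniline with inhibitor in 50 mM Tris-HCl pH 8.0, 5 mM CaCl2, 100 mM NaCl, 0.1% BSA. Percent inhibition from OD405 versus control.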

The next assay concerns the target T2, Human factor Xa (Homo sapiens, UniProt P00742).
T2 construct: purchased Enzyme Research Laboratories, South Bend Ind
The experiment in a line: Xa assay (chromogenic substrate S-2765). Particulars: reported only as less than or greater than 30 uM; read-out: Factor Xa (II) IC50. In short, it runs like this: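 Human factor Xa (0.3 nM) was incubated with inhibitor and 0.15 mM S-2765 in 50 mM Tris-HCl pH 8.0, 100 mM NaCl, 0.1% BSA. After 60 min at RT, p-nitroaniline release was read at 405 nm after background subtraction. Percent inhibition was calculated against uninhibited control.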

Another assay deals with T3, Human thrombin (Homo sapiens, UniProt P00734).
T3 construct: converts prothrombin (II) to thrombin (IIa); purchased Calbiochem, La Jolla, Calif
The experiment in a line: Thrombin assay (chromogenic substrate). Particulars: reported only as less than or greater than 30 uM; read-out: Thrombin (II) IC50. In short, it runs like this:
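Chromogenic assay with p-nitroaniline-releasing substrate; thrombin activity read as OD405 nm. Percent inhibition calculated from experimental versus control absorbance.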

Assay [2] concerns Normal human pooled plasma. The experiment in a line: Prothrombin time (PT) clotting assay. Particulars: concentration at which prothrombin time is prolonged by 2x normal, reported as less than or greater than 50 uM. How it is done: The prothrombin time (PT) assay is a clotting assay that is used to determine deficiencies of clotting factor activity in the extrinsic pathway. The assay measures time to clotting after the addition of thromboplastin (human tissue factor). Normal human pooled plasma is incubated with 100 uM compound or saline in a coagulation machine. Thromboplastin is added and time to clotting is measured. Compounds with greater than 3×normal PT of 11.0 seconds are further analyzed by concentration response to determine at what concentration the prothrombin time is prolonged by 2×normal.

T1 sequence (P08709 213-466 limits assumed): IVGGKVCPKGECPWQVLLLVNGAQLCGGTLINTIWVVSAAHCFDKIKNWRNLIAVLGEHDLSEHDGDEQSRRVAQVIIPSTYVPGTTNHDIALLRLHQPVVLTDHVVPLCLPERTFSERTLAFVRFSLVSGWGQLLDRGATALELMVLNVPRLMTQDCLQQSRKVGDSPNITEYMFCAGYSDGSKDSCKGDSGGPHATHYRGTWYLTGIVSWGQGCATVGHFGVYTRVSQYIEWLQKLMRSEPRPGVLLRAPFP
T1 sequence (P08709 61-212 limits assumed): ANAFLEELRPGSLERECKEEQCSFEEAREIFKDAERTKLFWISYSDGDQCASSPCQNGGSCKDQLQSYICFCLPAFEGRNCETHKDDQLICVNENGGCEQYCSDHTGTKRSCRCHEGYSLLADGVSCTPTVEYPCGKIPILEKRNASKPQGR
T1 sequence (P13726 33-251 partner limits assumed): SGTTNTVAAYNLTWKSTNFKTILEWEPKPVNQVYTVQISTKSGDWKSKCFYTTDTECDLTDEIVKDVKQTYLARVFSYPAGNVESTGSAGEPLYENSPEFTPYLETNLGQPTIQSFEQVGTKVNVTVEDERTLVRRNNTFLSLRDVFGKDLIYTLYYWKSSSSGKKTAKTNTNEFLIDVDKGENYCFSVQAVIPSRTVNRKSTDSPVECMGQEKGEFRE
T2 sequence (P00742 235-488 limits assumed): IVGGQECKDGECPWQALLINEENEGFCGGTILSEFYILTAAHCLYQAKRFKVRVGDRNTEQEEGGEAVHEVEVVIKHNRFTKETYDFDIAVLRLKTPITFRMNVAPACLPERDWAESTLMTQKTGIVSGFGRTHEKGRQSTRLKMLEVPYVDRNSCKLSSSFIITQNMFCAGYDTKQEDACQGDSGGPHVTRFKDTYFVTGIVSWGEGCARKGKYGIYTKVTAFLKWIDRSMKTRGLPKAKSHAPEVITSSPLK
T2 sequence (P00742 41-179 limits assumed): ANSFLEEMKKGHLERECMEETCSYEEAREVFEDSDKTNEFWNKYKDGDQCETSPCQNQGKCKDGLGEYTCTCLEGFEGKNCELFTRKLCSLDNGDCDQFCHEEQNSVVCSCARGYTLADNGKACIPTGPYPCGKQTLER

As usually defined, the IC50 is the concentration that gives 50% inhibition. As to `CC(C)Nc1ncc(-c2cc(N)cc(C(=O)NC(C)c3ccccc3)c2)n(CC(=O)NCc2ccc(C(=N)N)cc2)c1=O` (racemic) [Example 56], the IC50 in assay [1] was less than 0.1 µM; at Human factor Xa, greater than 30 µM; on Human thrombin it was less than 30 µM. In addition, in assay [2], the “PT (Prothrombin time) 2xPT” value is less than 50.0 µM.

For `COC(=O)c1cc(N)cc(-c2c(Br)nc(NC(C)C)c(=O)n2CC(=O)NCc2ccc(C(=N)N)cc2)c1` [Example 4, Methyl 3-amino-5-[1-[2-({4-[amino(imino)methyl]benzyl}amino)-2-oxoethyl]-3-bromo-5-(isopropylamino)-6-oxo-1,6-dihydropyrazin-2-yl]benzoate], the figures for the IC50 (in assay [1]; on Human factor Xa; at Human thrombin) were less than 0.1 µM, greater than 30 µM and greater than 30 µM, respectively. Further, the “PT (Prothrombin time) 2xPT” value in assay [2] was greater than 50.0 µM.

`CC(C)CCNC(=O)c1cc(N)cc(-c2cnc(NC(C)C)c(=O)n2CC(=O)NCc2ccc(C(=N)N)cc2)c1.O=C(O)C(F)(F)F.O=C(O)C(F)(F)F` [Example 6]: the IC50 was less than 0.1 µM in assay [1], greater than 30 µM on Human factor Xa and greater than 30 µM at Human thrombin. Besides, the “PT (Prothrombin time) 2xPT” value in assay [2] is less than 50.0 µM.

On to `CCC(C)NC(=O)c1cc(N)cc(-c2cnc(NC(C)C)c(=O)n2CC(=O)NCc2ccc(C(=N)N)cc2)c1.O=C(O)C(F)(F)F.O=C(O)C(F)(F)F` (stereo not drawn) [Example 7], for which the IC50 in assay [1] was less than 0.1 µM; on Human factor Xa, greater than 30 µM; at Human thrombin it was less than 30 µM. Further, the “PT (Prothrombin time) 2xPT” value in assay [2] is less than 50.0 µM.

As to `CC(C)Nc1ncc(-c2cc(N)cc(C(=O)NCc3cccc(C(F)(F)F)c3)c2)n(CC(=O)NCc2ccc(C(=N)N)cc2)c1=O.O=C(O)C(F)(F)F.O=C(O)C(F)(F)F` [Example 10], the IC50 in assay [1] is less than 0.1 µM; on Human factor Xa, greater than 30 µM; at Human thrombin it was greater than 30 µM. In addition, the “PT (Prothrombin time) 2xPT” value in assay [2] is less than 50.0 µM.

On to `CC(C)Nc1ncc(-c2cc(N)cc(C(=O)NC3CCC3)c2)n(CC(=O)NCc2ccc(C(=N)N)cc2)c1=O.O=C(O)C(F)(F)F.O=C(O)C(F)(F)F` [Example 15], for which the results for the IC50 (in assay [1]; at Human factor Xa; on Human thrombin) were less than 0.1 µM, greater than 30 µM and less than 30 µM, respectively. In addition, in assay [2], the “PT (Prothrombin time) 2xPT” value is less than 50.0 µM.

For `CC(C)Nc1ncc(-c2cc(N)cc(C(F)(F)F)c2)n(CC(=O)NCc2ccc(C(=N)N)cc2)c1=O` [Example 18], the IC50 in assay [1] was less than 0.1 µM; at Human factor Xa it was greater than 30 µM; at Human thrombin it was greater than 30 µM. Besides, the “PT (Prothrombin time) 2xPT” value in assay [2] is less than 50.0 µM.

With `CC(C)Nc1ncc(-c2cc(N)cc(C(=O)NCc3ccccc3)c2)n(CC(=O)NCc2ccc(C(=N)N)cc2)c1=O.O=C(O)C(F)(F)F.O=C(O)C(F)(F)F` [Example 24], the IC50 in assay [1] is less than 0.1 µM; at Human factor Xa, greater than 30 µM; on Human thrombin it was greater than 30 µM. Besides, the “PT (Prothrombin time) 2xPT” value in assay [2] is less than 50.0 µM.

For `CC(C)Nc1ncc(-c2cc(N)cc(C(=O)N(C)Cc3ccccc3)c2)n(CC(=O)NCc2ccc(C(=N)N)cc2)c1=O.O=C(O)C(F)(F)F.O=C(O)C(F)(F)F` [Example 28], the IC50 was less than 0.1 µM in assay [1], greater than 30 µM at Human factor Xa and greater than 30 µM at Human thrombin. The “PT (Prothrombin time) 2xPT” value in assay [2] was less than 50.0 µM.

Turning to `CNc1ncc(-c2cc(N)cc(N)c2)n(CC(=O)NCc2ccc(C(=N)N)cc2)c1=O` [Example 35], the IC50 in assay [1] was less than 0.1 µM; on Human factor Xa, greater than 30 µM; at Human thrombin, greater than 30 µM. Also, the “PT (Prothrombin time) 2xPT” value in assay [2] is less than 50.0 µM.

For the molecule `CC(C)Nc1ncc(-c2cc(N)cc(C(F)(F)F)c2)n(CC(=O)NCc2ccc(C(=N)N)c(O)c2)c1=O` [Example 49], the IC50 in assay [1] is greater than 0.1 µM; at Human factor Xa, greater than 30 µM; at Human thrombin it was greater than 30 µM. The “PT (Prothrombin time) 2xPT” value in assay [2] is less than 50.0 µM.

On to `CC(C)Nc1ncc(-c2cc(N)cc(NC(=O)C(C)C)c2)n(CC(=O)NCc2ccc(C(=N)N)cc2)c1=O` [Example 50, N-{3-amino-5-[1-[2-({4-[amino(imino)methyl]benzyl}amino)-2-oxoethyl]-5-(isopropylamino)-6-oxo-1,6-dihydropyrazin-2-yl]phenyl}-2-methylpropanamide], for which the IC50 is less than 0.1 µM in assay [1], greater than 30 µM on Human factor Xa and less than 30 µM at Human thrombin. For the same molecule, the “PT (Prothrombin time) 2xPT” value in assay [2] is less than 50.0 µM.

As to `CC(C)Nc1ncc(-c2cc(N)cc(C(F)(F)F)c2)n(CC(=O)NCc2ccc(C(=N)N)c(F)c2F)c1=O` [Example 51], the IC50 in assay [1] is greater than 0.1 µM; on Human factor Xa, greater than 30 µM; at Human thrombin, greater than 30 µM. The “PT (Prothrombin time) 2xPT” value in assay [2] was less than 50.0 µM.

Regarding `COc1cc(N)cc(-c2cnc(NC(C)C)c(=O)n2CC(=O)NCc2ccc(C(=N)N)cc2)c1` [Example 53, N-{4-[Amino(imino)methyl]benzyl}-2-[6-(3-amino-5-methoxyphenyl)-3-(isopropylamino)-2-oxopyrazin-1 (2H)-yl]acetamide], the IC50 in assay [1] is less than 0.1 µM; at Human factor Xa, greater than 30 µM; on Human thrombin, greater than 30 µM. Further, in assay [2], the “PT (Prothrombin time) 2xPT” value was less than 50.0 µM.

As for `CC(C)Nc1ncc(-c2cc(N)cc(O)c2)n(CC(=O)NCc2ccc(C(=N)N)cc2)c1=O` [Example 54], the results for the IC50 (in assay [1]; on Human factor Xa; at Human thrombin) were less than 0.1 µM, greater than 30 µM and greater than 30 µM, respectively. The “PT (Prothrombin time) 2xPT” value in assay [2] was less than 50.0 µM.

As to `CC(C)Nc1ncc(-c2cc(N)cc(C(=O)N[C@@H](C)c3ccccc3)c2)n(CC(=O)NCc2ccc(C(=N)N)cc2)c1=O` [Example 57], the IC50 in assay [1] is less than 0.1 µM; at Human factor Xa it was greater than 30 µM; at Human thrombin, less than 30 µM. Also, the “PT (Prothrombin time) 2xPT” value in assay [2] was less than 50.0 µM.

With `CC(C)Nc1ncc(-c2cc(N)cc(C(=O)N[C@H](C)c3ccccc3)c2)n(CC(=O)NCc2ccc(C(=N)N)cc2)c1=O` [Example 58], the IC50 is less than 0.1 µM in assay [1], greater than 30 µM at Human factor Xa and less than 30 µM on Human thrombin. Further, in assay [2], the “PT (Prothrombin time) 2xPT” value is less than 50.0 µM.

Regarding `CC(C)Nc1ncc(-c2cc(N)cc(C(=O)NCc3cc(C(F)(F)F)cc(C(F)(F)F)c3)c2)n(CC(=O)NCc2ccc(C(=N)N)cc2)c1=O` [Example 59], the figures for the IC50 (in assay [1]; on Human factor Xa; on Human thrombin) were greater than 0.1 µM, greater than 30 µM and greater than 30 µM, respectively. In assay [2], the “PT (Prothrombin time) 2xPT” value was greater than 50.0 µM.

For the molecule `CC(C)Nc1ncc(-c2cc(N)cc(C(=O)NCc3cccnc3)c2)n(CC(=O)NCc2ccc(C(=N)N)cc2)c1=O` [Example 61], the IC50 is less than 0.1 µM in assay [1], greater than 30 µM on Human factor Xa and greater than 30 µM on Human thrombin. Besides, the “PT (Prothrombin time) 2xPT” value in assay [2] is less than 50.0 µM.

As to `CC(C)Nc1ncc(-c2cc(N)cc(C(=O)NCCCc3ccccc3)c2)n(CC(=O)NCc2ccc(C(=N)N)cc2)c1=O` [Example 62], the concentration for half-maximal inhibition (IC50) was less than 0.1 µM in assay [1], greater than 30 µM on Human factor Xa and less than 30 µM at Human thrombin. Further, the “PT (Prothrombin time) 2xPT” value in assay [2] is less than 50.0 µM.

In the case of `CCNC(=O)c1cc(N)cc(-c2cnc(NC(C)C)c(=O)n2CC(=O)NCc2ccc(C(=N)N)cc2)c1` [Example 63], the IC50 in assay [1] was less than 0.1 µM; at Human factor Xa, greater than 30 µM; on Human thrombin, greater than 30 µM. In addition, the “PT (Prothrombin time) 2xPT” value in assay [2] was less than 50.0 µM.

As to `CC(C)COc1cc(N)cc(-c2cnc(NC(C)C)c(=O)n2CC(=O)NCc2ccc(C(=N)N)cc2)c1` [Example 64, N-{4-[amino(imino)methyl]benzyl}-2-[6-(3-amino-5-isobutoxyphenyl)-3-(isopropylamino)-2-oxopyrazin-1 (2H)-yl]acetamide], the IC50 in assay [1] was less than 0.1 µM; at Human factor Xa it was greater than 30 µM; at Human thrombin it was greater than 30 µM. In addition, the “PT (Prothrombin time) 2xPT” value in assay [2] was less than 50.0 µM.

In the case of `CC(C)Nc1ncc(-c2cc(N)cc(C(F)(F)F)c2)n(CC(=O)NCc2c(F)c(O)c(C(=N)N)c(F)c2F)c1=O` [Example 65], the figures for the IC50 (in assay [1]; on Human factor Xa; at Human thrombin) were greater than 0.1 µM, greater than 30 µM and greater than 30 µM, respectively. Besides, the “PT (Prothrombin time) 2xPT” value in assay [2] was greater than 50.0 µM.

For the molecule `CC(C)Nc1ncc(-c2cc(N)cc(S(=O)(=O)O)c2)n(CC(=O)NCc2ccc(C(=N)N)cc2)c1=O` [Example 66, 3-Amino-5-[1-[2-({4-[amino(imino)methyl]benzyl}amino)-2-oxoethyl]-5-(isopropylamino)-6-oxo-1,6-dihydropyrazin-2-yl]benzenesulfonic Acid], the IC50 in assay [1] is less than 0.1 µM; at Human factor Xa, greater than 30 µM; on Human thrombin, greater than 30 µM. Moreover, the “PT (Prothrombin time) 2xPT” value in assay [2] was less than 50.0 µM.

`CC[C@@H](C)NC(=O)c1cc(N)cc(-c2cnc(NC(C)C)c(=O)n2CC(=O)NCc2ccc(C(=N)N)c(O)c2)c1.O.O.O=C(O)C(F)(F)F` [Example 254]: the figures for the IC50 (in assay [1]; on Human thrombin) were less than 0.1 µM and greater than 30 µM, respectively. Further, the “PT (Prothrombin time) 2xPT” value in assay [2] was less than 50.0 µM.
